Data on three compounds can be found in ChEMBL document CHEMBL4184322, “Coupling of an Acyl Migration Prodrug Strategy with Bio-activation To Improve Oral Delivery of the HIV-1 Protease Inhibitor Atazanavir” (J Med Chem, 2018).

In series [1] the test system is Rattus norvegicus. Put plainly: Trough concentration in Sprague-Dawley rat assessed as atazanavir at 3 mg/kg, po equiv of atazanavir at 24 hrs by UPLC/MS/MS method. In kind it is ADME, organism-based. The following applies: in vivo; for Cmin: BLD = below limit of detection.
The nature of series [2]: Solubility of the compound in phosphate buffer at pH 6.5 at 25 degC by UPLC method. The class given is physicochemical.
A short description of series [3]: Half life of the compound in 0.1 N aqueous HCl at pH 1 at 37 degC after 24 hrs by UPLC method. The class given is physicochemical.
The nature of series [4]: Half life in rat whole blood at 1 uM after 5 to 90 mins by UPLC-MS/MS method. The class given is ADME, tissue-based.
Series [5] has as its system Rattus norvegicus. Put plainly: Tmax in Sprague-Dawley rat assessed as atazanavir at 3 mg/kg, po equiv of atazanavir after 0.25 to 24 hrs by UPLC/MS/MS method. In kind it is ADME, organism-based. The following applies: in vivo.
The test system of series [6] is Rattus norvegicus. The series can be described thus: Oral bioavailability in Sprague-Dawley rat assessed as atazanavir at 3 mg/kg equiv of atazanavir after 0.25 to 24 hrs by UPLC/MS/MS method relative to atazanavir. In kind it is ADME, organism-based. The settings on record: in vivo.
Series [7] is described as follows: Solubility of the compound in acetate buffer at pH 4 at 25 degC by UPLC method. The class given is physicochemical.
A short description of series [8]: Solubility of the compound in 0.1 N aqueous HCl at pH 1 at 25 degC by UPLC method. The class given is physicochemical.
In series [9] the test system is Rattus norvegicus. The series can be described thus: Cmax in Sprague-Dawley rat assessed as atazanavir at 3 mg/kg, po equiv of atazanavir after 0.25 to 24 hrs by UPLC/MS/MS method. The class given is ADME, organism-based. Also noted: dose 3 mg/kg, route oral. The settings on record: in vivo.
Series [10] deals with Rattus norvegicus. Put plainly: AUClast in Sprague-Dawley rat assessed as atazanavir at 3 mg/kg, po equiv of atazanavir after 0.25 to 24 hrs by UPLC/MS/MS method. The following applies: in vivo. Details: time upper 24 hr, dose 3 mg/kg, time lower 0.25 hr, route oral. In kind it is ADME, organism-based.
The nature of series [11]: Half life in rat hepatocytes at 1 uM after 5 to 120 mins by UPLC-MS/MS method. In kind it is ADME, cell-based, Hepatocyte.
Series [12] can be described thus: Half life of the compound in phosphate buffer at pH 6.5 at 37 degC after 24 hrs by UPLC method. In kind it is physicochemical.
Series [13] is described as follows: Half life of the compound in acetate buffer at pH 4 at 37 degC after 24 hrs by UPLC method. In kind it is physicochemical.
The subject of series [14] is Rattus norvegicus. Put plainly: Ratio of AUClast in Sprague-Dawley rat at 3 mg/kg, po equiv of atazanavir to AUC in Sprague-Dawley rat assessed as atazanavir at 3 mg/kg, po equiv of atazanavir. In kind it is ADME, organism-based. The following applies: in vivo.
Series [15] is described as follows: Apparent permeability across apical to basolateral side in human Caco2 cells. The class given is ADME, cell-based. The settings on record: Caco-2.
Series [16] is described as follows: Apparent permeability across basolateral to apical side in human Caco2 cells. The following applies: Caco-2. In kind it is ADME, cell-based. (In general: Caco-2 cells form a polarised layer with tight junctions and transporters.)
Series [17] in a line: Efflux ratio of apparent permeability across basolateral to apical over apical to basolateral side in human Caco2 cells. The class given is ADME, cell-based. The following applies: Caco-2.
Series [18] can be described thus: Half life of the compound in phosphate buffer at pH 7.4 at 37 degC after 24 hrs by UPLC method. The class given is physicochemical.

As a reminder, the solubility is how much of the substance goes into solution per volume. A high value points to a readily soluble substance. What is called half-life is the time needed for the level to fall by half in the phase considered. Broadly, the Tmax is the time at which the peak concentration occurs. The Cmax is the highest concentration seen after dosing. The term Papp A→B denotes the apparent permeability from the apical to the basolateral side of a cell layer. As a reminder, the Papp B→A is how fast a substance crosses the layer from the basolateral side. In general, efflux ratio refers to a quotient of directional permeabilities that is used to spot active efflux.

Take `COC(=O)N[C@H](C(=O)NN(Cc1ccc(-c2ccccn2)cc1)C[C@H](OC(=O)[C@@H](NC(=O)OC)C(C)(C)C)[C@H](Cc1ccccc1)NC(=O)OCc1oc(=O)oc1C)C(C)(C)C`: the concentration in [1] (read-out: Cmin) came out at 0.3 nM. Besides, the solubility in series [2] is below 1 µg/mL; in [7], below 1 µg/mL; in [8], above 1800 µg/mL. For the same compound, the figures for the half-life in [3], in [12] and in series [13] were above 500 h, 120 h and above 500 h, respectively. The half-life at 1 µM in series [4] and in series [11] was below 0.0833 h in each case. In addition, the Tmax in [5] was determined as 1.3 h. Also, the F in [6] was found to be 10.1%. Besides, in [9], the Cmax was found to be 180 nM. Besides, the AUClast in series [10] stood at 0.194 µM·h. Besides, in series [14], the “Ratio AUC” value worked out at 0.1.
Consider `COC(=O)N[C@H](C(=O)NN(Cc1ccc(-c2ccccn2)cc1)C[C@H](OC(=O)[C@@H](NC(=O)OC)C(C)(C)C)[C@@H](N)Cc1ccccc1)C(C)(C)C.Cl.Cl`, for which the Cmin entry in [1] was “Bld”. In addition, the figures for the half-life in [3], in [12] and in series [13] were 376 h, 6.6 h and 334 h, respectively. Also, the half-life at 1 µM in series [4] was above 2 h; in series [11], 1.32 h. Besides, the time of peak concentration (Tmax) in series [5] is 0.4 h. Also, the F in [6] was 0.83%. Besides, the solubility in [7] is above 400 µg/mL; in series [8], above 900 µg/mL. Moreover, in [15], the Papp A→B was determined as 2.3 ×10⁻⁶ cm/s. Also, the Papp B→A in series [16] was determined as 34.8 ×10⁻⁶ cm/s. Besides, in [9], the Cmax is 8 nM. Besides, the AUClast in [10] is 0.016 µM·h. The efflux ratio in [17] is 15. Besides, the “Ratio AUC” value in series [14] is recorded as 4.9.
On to `COC(=O)N[C@H](C(=O)NN(Cc1ccc(-c2ccccn2)cc1)C[C@H](OC(=O)[C@@H](NC(=O)OC)C(C)(C)C)[C@H](Cc1ccccc1)NC(=O)OCOC(=O)[C@@H](N)C(C)C)C(C)(C)C.Cl.Cl`, for which, in series [1], the Cmin result is listed as “Bld”. The half-life was above 500 h in series [3], 1.8 h in series [18], 6.6 h in series [12] and 334 h in series [13]. Besides, the half-life at 1 µM is 0.333 h in series [4] and below 0.0833 h in series [11]. Further, the Tmax in series [5] came to 0.4 h. In [6], the F is on record as 4.3%. Further, the solubility in series [7] is above 1500 µg/mL; in [8] it was above 1800 µg/mL. Also, the Cmax in series [9] stood at 56 nM. The AUClast in [10] was 0.083 µM·h.
